# Columns and labels:
# [1] = Caco2 assay (permeability, Papp A-B); type: in vitro ADME; settings: human, Caco-2, absorptive direction (A-B), 50 μM test compound, 4% BSA in receiver
# Outline: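 Caco-2 monolayers, 22-25 days on Transwells, TEER 300 Ω·cm^2, dosed apically with 50 μM compound in HBSS; basolateral HBSS with 4% BSA. 120 min at 37 °C, samples quantified by LCMS; Papp (A-B) from receiver-side cumulative flux slope, donor volume, surface area and initial donor amount.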
# KRAS G12V = KRAS G12V (Homo sapiens, UniProt P01116, G12V); assay: GDP-GTP exchange assay (KRAS G12V); type: biochemical; settings: bodipy-GDP/GppNHp exchange with SOS1; 3 h incubation after GppNHp-SOS1;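 further: one dagger IC50 up to 100 nM and two daggers above 100 nM up to 1 μM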
# Sequence of KRAS G12V (P01116 1-188 isoform P01116-2 G12V): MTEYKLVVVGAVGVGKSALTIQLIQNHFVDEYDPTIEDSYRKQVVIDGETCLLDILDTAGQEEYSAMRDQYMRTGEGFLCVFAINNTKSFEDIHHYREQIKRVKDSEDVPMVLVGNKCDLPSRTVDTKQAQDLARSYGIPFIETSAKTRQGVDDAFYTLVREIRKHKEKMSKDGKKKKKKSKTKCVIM
# Outline: (§1)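 Bodipy-GDP-loaded KRAS (2.5 nM final) was pre-incubated 4 h at r.t. with inhibitor in Hepes pH 7.5 buffer with MgCl2, then exchange started with GppNHp (500 μM) and SOS1 (150 nM) final. Fluorescence (ex 485/em 520 nm) read after 2 h for G12D, 3 h for G12V; IC50 from four-parameter logistic fit.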
# KRAS G12D = KRAS G12D (Homo sapiens, UniProt P01116, G12D); assay: GDP-GTP exchange assay (KRAS G12D); type: biochemical; settings: bodipy-GDP/GppNHp exchange with SOS1; 4 h pre-incubation, 2 h reaction;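 further: one dagger IC50 up to 100 nM and two daggers above 100 nM up to 1 μM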
# Sequence of KRAS G12D (P01116 1-188 isoform P01116-2 G12D): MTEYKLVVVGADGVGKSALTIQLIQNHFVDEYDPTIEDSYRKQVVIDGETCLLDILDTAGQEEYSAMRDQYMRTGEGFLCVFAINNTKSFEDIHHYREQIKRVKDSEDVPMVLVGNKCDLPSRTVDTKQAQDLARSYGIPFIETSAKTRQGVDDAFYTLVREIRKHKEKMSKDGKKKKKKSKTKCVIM
# Outline: as §1
Compound,"Papp A→B at 120 min, 50 μM [1]",G12V_exchange (KRAS_G12V exchange assay IC50) (KRAS G12V),G12D_exchange (KRAS_G12D exchange assay IC50) (KRAS G12D)
"CCn1ccc(N2C[C@@H]3C[C@H](C2)N(C(=O)C2CC2)[C@H]3c2cc3c(C)nc4c(F)c(-c5cccc(Cl)c5Cl)c(CCC#N)cc4c3n2[C@H]2[C@H]3CN[C@@H]2C3)cc1=O (atropisomer, axis not shown; (Ra)) [Example 67, 3-((Ra)-1-((1R,4R,5S)-2-azabicyclo[2.1.1]hexan-5-yl)-2-((1S,5R,7R)-6-(cyclopropanecarbonyl)-3-(1-ethyl-2-oxo-1,2-dihydropyridin-4-yl)-3,6-diazabicyclo[3.2.1]octan-7-yl)-7-(2,3-dichlorophenyl)-6-fluoro-4-methyl-1H-pyrrolo[3,2-c]quinolin-8-yl)propanenitrile]",≤ 0.5 ×10⁻⁶ cm/s,†,†
"Cc1nc2c(F)c(-c3cccc(Cl)c3Cl)c(CCC#N)cc2c2c1cc([C@H]1[C@H]3C[C@H](CN(c4ccn(C(C)C)c(=O)c4)C3)N1C(=O)C1CC1)n2[C@H]1[C@H]2CN[C@@H]1C2 (atropisomer, axis not shown; (Ra)) [Example 68, 3-((Ra)-1-((1R,4R,5S)-2-azabicyclo[2.1.1]hexan-5-yl)-2-((1S,5R,7R)-6-(cyclopropanecarbonyl)-3-(1-isopropyl-2-oxo-1,2-dihydropyridin-4-yl)-3,6-diazabicyclo[3.2.1]octan-7-yl)-7-(2,3-dichlorophenyl)-6-fluoro-4-methyl-1H-pyrrolo[3,2-c]quinolin-8-yl)propanenitrile]",≤ 0.5 ×10⁻⁶ cm/s,†,†
"Cc1nc2c(F)c(-c3cccc(Cl)c3Cl)c(CCC#N)cc2c2c1cc([C@H]1[C@H]3C[C@H](CN(c4cc(=O)n(C)cn4)C3)N1C(=O)C1CC1)n2[C@H]1[C@H]2CN[C@@H]1C2 (atropisomer, axis not shown; (Ra)) [Example 69, 3-((Ra)-1-((1R,4R,5S)-2-azabicyclo[2.1.1]hexan-5-yl)-2-((1S,5R,7R)-6-(cyclopropanecarbonyl)-3-(1-methyl-6-oxo-1,6-dihydropyrimidin-4-yl)-3,6-diazabicyclo[3.2.1]octan-7-yl)-7-(2,3-dichlorophenyl)-6-fluoro-4-methyl-1H-pyrrolo[3,2-c]quinolin-8-yl)propanenitrile]",≤ 0.5 ×10⁻⁶ cm/s,†,†
"Cc1nc2c(F)c(-c3cccc(Cl)c3Cl)c(CCC#N)cc2c2c1cc([C@H]1[C@H]3C[C@H](CN(c4ccn5cc(C(F)(F)F)nc5c4)C3)N1C(=O)C1CC1)n2[C@H]1[C@H]2CN[C@@H]1C2 (atropisomer, axis not shown; (Ra)) [Example 70, 3-((Ra)-1-((1R,4R,5S)-2-azabicyclo[2.1.1]hexan-5-yl)-2-((1S,5R,7R)-6-(cyclopropanecarbonyl)-3-(2-(trifluoromethyl)imidazo[1,2-a]pyridin-7-yl)-3,6-diazabicyclo[3.2.1]octan-7-yl)-7-(2,3-dichlorophenyl)-6-fluoro-4-methyl-1H-pyrrolo[3,2-c]quinolin-8-yl)propanenitrile]",≤ 0.5 ×10⁻⁶ cm/s,†,†
"Cc1nc2c(F)c(-c3cccc(Cl)c3Cl)c(CCC#N)cc2c2c1cc([C@H]1[C@H]3C[C@H](CN(c4ccn5nccc5c4)C3)N1C(=O)C1CC1)n2[C@H]1[C@H]2CN[C@@H]1C2 (atropisomer, axis not shown; (Ra)) [Example 71, 3-((Ra)-1-((1R,4R,5S)-2-azabicyclo[2.1.1]hexan-5-yl)-2-((1S,5R,7R)-6-(cyclopropanecarbonyl)-3-(pyrazolo[1,5-a]pyridin-5-yl)-3,6-diazabicyclo[3.2.1]octan-7-yl)-7-(2,3-dichlorophenyl)-6-fluoro-4-methyl-1H-pyrrolo[3,2-c]quinolin-8-yl)propanenitrile]",≤ 0.5 ×10⁻⁶ cm/s,†,†
"Cc1nc2c(F)c(-c3cccc(Cl)c3Cl)c(CCC#N)cc2c2c1cc([C@H]1[C@H]3C[C@H](CN(c4ccn5ncnc5c4)C3)N1C(=O)C1CC1)n2[C@H]1[C@H]2CN[C@@H]1C2 (atropisomer, axis not shown; (Ra)) [Example 72, 3-((Ra)-2-((1S,5R,7R)-3-([1,2,4]triazolo[1,5-a]pyridin-7-yl)-6-(cyclopropanecarbonyl)-3,6-diazabicyclo[3.2.1]octan-7-yl)-1-((1R,4R,5S)-2-azabicyclo[2.1.1]hexan-5-yl)-7-(2,3-dichlorophenyl)-6-fluoro-4-methyl-1H-pyrrolo[3,2-c]quinolin-8-yl) propanenitrile]",≤ 0.5 ×10⁻⁶ cm/s,†,†
"Cc1nc2c(F)c(-c3cccc(Cl)c3Cl)c(CCC#N)cc2c2c1cc([C@H]1[C@H]3C[C@H](CN(c4ccoc(=O)c4)C3)N1C(=O)C1CC1)n2[C@H]1[C@H]2CN[C@@H]1C2 (atropisomer, axis not shown; (Ra)) [Example 73, 3-((Ra)-1-((1R,4R,5S)-2-azabicyclo[2.1.1]hexan-5-yl)-2-((1S,5R,7R)-6-(cyclopropanecarbonyl)-3-(2-oxo-2H-pyran-4-yl)-3,6-diazabicyclo[3.2.1]octan-7-yl)-7-(2,3-dichlorophenyl)-6-fluoro-4-methyl-1H-pyrrolo[3,2-c]quinolin-8-yl)propanenitrile]",≤ 0.5 ×10⁻⁶ cm/s,†,†
"Cc1nc2c(F)c(-c3cccc(Cl)c3Cl)c(CCC#N)cc2c2c1cc([C@H]1[C@H]3C[C@H](CN(c4ccnc(Br)c4)C3)N1C(=O)C1CC1)n2[C@H]1[C@H]2CN[C@@H]1C2 (atropisomer, axis not shown; (Ra)) [Example 74, 3-((Ra)-1-((1R,4R,5S)-2-azabicyclo[2.1.1]hexan-5-yl)-2-((1S,5R,7R)-3-(2-bromopyridin-4-yl)-6-(cyclopropanecarbonyl)-3,6-diazabicyclo[3.2.1]octan-7-yl)-7-(2,3-dichlorophenyl)-6-fluoro-4-methyl-1H-pyrrolo[3,2-c]quinolin-8-yl)propanenitrile]",≤ 0.5 ×10⁻⁶ cm/s,†,†
"Cc1c(N2C[C@@H]3C[C@H](C2)N(C(=O)C2CC2)[C@H]3c2cc3c(C)nc4c(F)c(-c5cccc(Cl)c5Cl)c(CCC#N)cc4c3n2[C@H]2[C@H]3CN[C@@H]2C3)ccnc1F (atropisomer, axis not shown; (Ra)) [Example 76, 3-((Ra)-1-((1R,4R,5S)-2-azabicyclo[2.1.1]hexan-5-yl)-2-((1S,5R,7R)-6-(cyclopropanecarbonyl)-3-(2-fluoro-3-methylpyridin-4-yl)-3,6-diazabicyclo[3.2.1]octan-7-yl)-7-(2,3-dichlorophenyl)-6-fluoro-4-methyl-1H-pyrrolo[3,2-c]quinolin-8-yl)propanenitrile]",0.5 to 1 ×10⁻⁶ cm/s,†,†
